Data taken from patent US20250263415A1, “TERTIARY AMIDE DERIVATIVES SUBSTITUTED WITH 4-MEMBERED RING STRUCTURE” (Sumitomo Pharma Co., Ltd., priority 2024, published 2025).

Columns and labels:
[1] = test system: G-401 xenograft; experiment: Drug efficacy evaluation by oral administration using G-401 xenograft model mice; assay type: in vivo
Experimental: (§1) G-401 cells (ATCC) were intradermally transplanted into 4-7-week-old BALB/cAnNCrj-nu/nu mice (CAnN.Cg-Foxnl/CrlCrlj, Jackson Laboratory Japan) at 5×10^5 cells/mouse. After confirming the engraftment of G-401 cells 10-40 days after transplantation, the test compound suspended in a solvent such as 0.5% methylcellulose solution was orally administered twice a day at a dose of 1-100 mg/kg. The tumor volume was measured over time from the start of administration, and the effect of tumor volume reduction by administration of the test compound was evaluated. The tumor volume can be calculated from the following equation using the minor axis and major axis of the tumor measured with an electronic caliper (Mitutoyo).
A control administration group administered with only a solvent such as 0.5% methylcellulose solution and a test compound administration group were compared, and the antitumor effect was evaluated by calculating T/C from the following equation.

[2] = Solubility test; assay type: physicochemical; settings: pH 2.0 and pH 3.0 buffers
Experimental: The solubility was measured for Examples 7, 10, 20, 23, 24, and 30 to 34, Comparative Example 1, and Comparative Example 2. The test compound was added to 10 mmol/L glycine buffer (pH 2.0) and 10 mmol/L citrate buffer (pH 3.0), and the mixture was stored in a thermostatic chamber at 5° C. After standing overnight, the mixture was filtered through a membrane filter, and the concentration of the filtrate was measured by HPLC.
The HPLC measurement conditions are as follows.
HPLC conditions • Column: Acquity UPLC BEH C18, 1.7 μm, 50×2.1 mm • Column temperature: 40° C. • Mobile phase: A: 0.1% trifluoroacetic acid-containing water • B: acetonitrile • A/B (min): 95/5 (0)→0/100 (3.5)→0/100 (4)→95/5 (4.01)→95/5 (5) • Flow rate: 0.8 mL/min • Detection: UV visible detector, measurement wavelength 254 nm • Injection volume: 5 μL or • Column: Acquity UPLC BEH C18, 1.7 μm, 50×2.1 mm • Column temperature: 40° C. • Mobile phase: A: 0.1% trifluoroacetic acid-containing water • B: acetonitrile • A/B (min): • 80/20 (0)→40/60 (3.0)→0/100 (3.5)→0/100 (4)→80/20 (4.01)→80/20 (5) • Flow rate: 0.8 mL/min • Detection: UV visible detector, measurement wavelength 254 nm • Injection volume: 2 μL or • Column: Acquity UPLC BEH C18, 1.7 μm, 50×2.1 mm • Column temperature: 40° C. • Mobile phase: A: 0.1% trifluoroacetic acid-containing water • B: acetonitrile • A/B (min): • 80/20 (0)→40/60 (3.0)→0/100 (3.5)→0/100 (4)→100/0 (4.01)→100/0 (5) • Flow rate: 0.8 mL/min • Detection: UV visible detector, measurement wavelength 254 nm • Injection volume: 3 μL

[3] = target: hDAT (Homo sapiens (Human), UniProt Q01959); experiment: Dopamine receptor inhibitory activity evaluation (binding assay, CHO-S/hDAT membranes); settings: off-target
hDAT, sequence (Q01959 whole entry): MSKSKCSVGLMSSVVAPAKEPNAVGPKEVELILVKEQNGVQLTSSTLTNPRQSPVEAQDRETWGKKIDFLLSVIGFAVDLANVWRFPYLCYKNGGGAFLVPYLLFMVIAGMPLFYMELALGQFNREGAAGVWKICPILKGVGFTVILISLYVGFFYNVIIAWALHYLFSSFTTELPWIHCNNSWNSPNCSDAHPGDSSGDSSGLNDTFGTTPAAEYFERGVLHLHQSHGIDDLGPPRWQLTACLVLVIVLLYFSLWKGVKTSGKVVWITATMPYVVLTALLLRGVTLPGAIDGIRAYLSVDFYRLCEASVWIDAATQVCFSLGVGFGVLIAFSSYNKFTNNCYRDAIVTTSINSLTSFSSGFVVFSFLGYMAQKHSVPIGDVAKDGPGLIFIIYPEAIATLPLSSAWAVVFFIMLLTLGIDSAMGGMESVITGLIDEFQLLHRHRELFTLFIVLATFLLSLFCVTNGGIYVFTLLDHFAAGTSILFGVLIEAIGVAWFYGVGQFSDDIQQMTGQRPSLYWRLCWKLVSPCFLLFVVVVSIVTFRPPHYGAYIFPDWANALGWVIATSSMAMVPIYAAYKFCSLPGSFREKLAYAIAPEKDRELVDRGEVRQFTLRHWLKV
Experimental: The binding evaluation assay was outsourced to Eurofins. Specifically, CHO—S/hDAT cells were homogenized in an incubation buffer consisting of 50 mmol/L Tris-HCl, pH 7.4, 100 mmol/L NaCl, 1 μmol/L Leupeptin, and 10 μmol/L PMSF. The membrane pellet obtained by centrifugation was resuspended in the incubation buffer to prepare a membrane preparation. The test compound (1-10 μmol/L DMSO solution), the membrane preparation, and 0.15 nmol/L […] were mixed and incubated at 4° C. for 180 minutes. The cell membrane-[^125I]RTI-55 complex was bound to a GF/B filter mat by vacuum filtration and washed with 50 mmol/L Tris-HCl, pH 7.4. The effect on the receptor was assessed by measuring radioactivity using a scintillation counter.

[4] = test system: G-401 xenograft; experiment: Drug efficacy evaluation by intravenous administration using G-401 xenograft mice model; assay type: in vivo; settings: G-401 xenograft model
Experimental: as §1, with “as 10 mmol/L glycine buffer” for “as 0.5% methylcellulose”, “solution (pH 2.0)” for “solution”, “was” for “was orally”, “administered via the tail vein at least once” for “administered twice”, “a week” for “a day”, “of 0.015-20” for “of 1-100”
A control administration group administered with only a solvent such as 10 mmol/L glycine buffer solution (pH 2.0) and a test compound administration group were compared, and the antitumor effect was evaluated by calculating T/C from the following equation.

[5] = target: hSERT (Homo sapiens (Human), UniProt P31645); experiment: Serotonin receptor inhibitory activity evaluation (binding assay, HEK293/hSERT membranes); settings: off-target
hSERT, sequence (P31645 whole entry): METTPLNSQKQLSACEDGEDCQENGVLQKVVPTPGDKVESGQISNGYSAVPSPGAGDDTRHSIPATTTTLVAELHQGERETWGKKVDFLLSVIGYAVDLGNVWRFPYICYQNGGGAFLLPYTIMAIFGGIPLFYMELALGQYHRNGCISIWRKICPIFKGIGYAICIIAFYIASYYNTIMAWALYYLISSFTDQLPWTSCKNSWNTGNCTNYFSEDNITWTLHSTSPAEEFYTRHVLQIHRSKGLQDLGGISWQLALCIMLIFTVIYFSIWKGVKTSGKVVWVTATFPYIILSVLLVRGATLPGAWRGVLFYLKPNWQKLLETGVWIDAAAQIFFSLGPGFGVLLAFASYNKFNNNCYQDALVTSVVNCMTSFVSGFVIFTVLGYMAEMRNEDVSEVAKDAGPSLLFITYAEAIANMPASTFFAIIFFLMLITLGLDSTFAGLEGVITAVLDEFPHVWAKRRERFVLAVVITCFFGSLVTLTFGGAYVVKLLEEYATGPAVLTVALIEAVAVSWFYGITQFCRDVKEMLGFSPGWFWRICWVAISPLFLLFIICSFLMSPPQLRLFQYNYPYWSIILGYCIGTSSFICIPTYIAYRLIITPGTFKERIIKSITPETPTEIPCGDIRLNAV
Experimental: The binding evaluation assay was outsourced to Eurofins. Specifically, HEK293/hSERT cells were homogenized in a buffer consisting of 100 mmol/L NaCl, 1 μmol/L Leupeptin, 10 μmol/L PMSF, and 50 mmol/L Tris-HCl (pH7.4). The membrane pellet obtained by centrifugation was resuspended in an incubation buffer consisting of 50 mmol/L Tris-HCl (pH 7.4), 120 mmol/L NaCl, and 5 mmol/L KCl to prepare a membrane preparation. The test compound (1-10 μmol/L DMSO solution), the membrane preparation, and 0.4 nmol/L [^3H]Paroxetin were mixed and incubated at 25° C. for 60 minutes. The cell membrane-[^3H]Paroxetin complex was bound to a GF/B filter mat by vacuum filtration and washed with 50 mmol/L Tris-HCl (pH 7.4). The effect on the receptor was assessed by measuring radioactivity using a scintillation counter.

[6] = Pharmacokinetic study in mice; assay type: in vivo
Experimental: The test compound was administered to 7-week-old female BALE/c (BALB/cAnN CrlCrlj) mice intravenously (dosage: 1 mg/kg) in a 50% PEG solution (0.01 mol/L HCl) or orally (dosage: 10 mg/kg) in a 0.5% methylcellulose aqueous solution, and blood was collected at the following times: • Intravenous administration: 5 min, 15 min, 30 min, 1 hr, 2 hr, 4 hr, 6 hr, and 24 hr after administration • Oral administration: 15 min, 30 min, 1 hr, 2 hr, 4 hr, 6 hr, and 24 hr after administration
The collected blood was centrifuged at 3000 rpm×10 min using a refrigerated centrifuge set at 4° C., and the obtained plasma was measured by LC-MS. A calibration curve was prepared from the value (peak ratio) obtained by dividing the peak area of the test substance by the peak area of the internal standard substance in MS and the concentration of the plasma calibration curve sample. The concentration in the sample was calculated from the peak ratio and the calibration curve of each sample.

[7] = test system: G-401 cells; experiment: Cell proliferation inhibition experiment using G-401 cells; assay type: cell-based
Experimental: G-401 cells (derived from malignant rhabdoid tumor) were obtained from the American Type Culture Collection (ATCC). G-401 cells were cultured in McCoy's 5A medium containing 10% fetal bovine serum and 1% penicillin/streptomycin under conditions of 37° C. and 5% CO2.
500 cells per well were seeded in a 384-well plate. One day after seeding, Examples 1 to 35 were added so that the final concentration of DMSO was 0.1%, and the cells were cultured for 3 days. After the culture was completed, the cell viability was measured using CellTiter-Glo Luminescent Cell Viability Assay (Promega, G7570).

Row | Structure (SMILES) | Antitumor effect, oral administration (in words) [1] | Solubility (in words) [2] | Inhibitory effect on dopamine receptors (in words) [3] | Antitumor effect, intravenous administration (in words) [4] | Inhibitory effect on serotonin receptors (in words) [5] | Pharmacokinetics (in words) [6] | Cell proliferation inhibitory effect on G-401 cells (in words) [7]
1 | CN1CC(N(Cc2ccc(F)cc2)C(=O)CN2C(=O)N[C@]3(C[C@@H](F)c4cc(-c5cnn(C)c5)ccc43)C2=O)(C(F)(F)F)C1 [Example 10, 2-[(1′S,3′R)-3′-fluoro-5′-(1-methyl-1H-pyrazol-4-yl)-2,5-dioxo-2′,3′-dihydrospiro[imidazolidine-4,1′-inden]-1-yl]-N-[(4-fluorophenyl)methyl]-N-[1-methyl-3-(trifluoromethyl)azetidin-3-yl]acetamide] | strong antitumor effects | high solubility | did not show strong inhibitory activity | strong antitumor effects | did not show strong inhibitory activity | excellent pharmacokinetics | –
2 | CN1CC(N(Cc2ccc(F)cn2)C(=O)CN2C(=O)N[C@]3(C[C@@H](F)c4cc(-c5cnn(C)c5)ccc43)C2=O)(C(F)(F)F)C1 [Example 20, 2-[(1′S,3′R)-3′-fluoro-5′-(1-methyl-1H-pyrazol-4-yl)-2,5-dioxo-2′,3′-dihydrospiro[imidazolidine-4,1′-inden]-1-yl]-N-[(5-fluoropyridin-2-yl)methyl]-N-[1-methyl-3-(trifluoromethyl)azetidin-3-yl]acetamide] | strong antitumor effects | high solubility | did not show strong inhibitory activity | strong antitumor effects | did not show strong inhibitory activity | excellent pharmacokinetics | strong cell proliferation inhibitory effect
3 | O=C1N[C@]2(C[C@@H](F)c3cc(-c4cnn(C5CCN(C6COC6)CC5)c4)ccc32)C(=O)N1CC(=O)N(Cc1ccc(F)cn1)C1(C(F)(F)F)COC1 [Example 23, 2-[(1′S,3′R)-3′-fluoro-5′-{1-[1-(oxetan-3-yl)piperidin-4-yl]-1H-pyrazol-4-yl}-2,5-dioxo-2′,3′-dihydrospiro[imidazolidine-4,1′-inden]-1-yl]-N-[(5-fluoropyridin-2-yl)methyl]-N-[3-(trifluoromethyl)oxetan-3-yl]acetamide] | strong antitumor effects | high solubility | did not show strong inhibitory activity | strong antitumor effects | did not show strong inhibitory activity | excellent pharmacokinetics | –
